Here are results for two compounds from patent US8962647B1, “Conjugate of polyethylene gylcol and naloxone and pharmaceutical composition and use thereof” (Jenkem Technology Co., Ltd. (Tianjin), priority 2012, dated 2015).

pIC50: −log10 of the molar value.

This assay has as its target T1, MOR receptors (Homo sapiens, UniProt P35372).
T1 construct: expressed in transfected cells; host or cells: CHO cells
Put plainly: cell-based. The format is cell-based. To be noted: CHO cells stably expressing MOR/Gα16; calcium flux caused by known agonist DAMGO; fluorescence at 525 nm.

T1 sequence (P35372 whole entry): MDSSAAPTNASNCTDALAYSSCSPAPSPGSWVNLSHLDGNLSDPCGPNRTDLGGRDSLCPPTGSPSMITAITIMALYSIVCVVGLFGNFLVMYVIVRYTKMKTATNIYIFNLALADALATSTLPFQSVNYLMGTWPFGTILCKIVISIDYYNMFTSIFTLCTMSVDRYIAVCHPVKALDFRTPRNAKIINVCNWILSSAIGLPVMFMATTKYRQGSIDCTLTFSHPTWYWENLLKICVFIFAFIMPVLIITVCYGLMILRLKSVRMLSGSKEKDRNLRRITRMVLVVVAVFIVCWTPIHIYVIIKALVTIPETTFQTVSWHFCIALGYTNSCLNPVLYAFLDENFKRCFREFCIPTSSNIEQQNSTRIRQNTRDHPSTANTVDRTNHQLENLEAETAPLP
Text: A cell line co-transfected with MOR and Gα16 is established, such that activation of receptors can activate Ga16 protein, which in turn activates phospholipase C (PLC) to generate IP3 and DAG. IP3 can bind to IP3 receptors on endoplasmic reticulum and mitochondria in the cells, thereby triggering the release of intracellular calcium. Therefore, detection of intracellular calcium levels can be employed as a measure for detecting the activation state of MOR. Fluo-4/AM is a calcium fluorescent probe indicator for measuring calcium ions. It is a non-polar liposoluble compound, which, upon entering a cell and by the action of lipolytic enzymes, releases Fluo-4 while the AM moiety is dissociated. As a polar molecule, Fluo-4 cannot easily pass through the lipid bilayer membrane, thus it is retained in the cells for a long duration. Eventually, the level of activation of Gα proteins is reflected by measuring the intensity of fluorescence that is excited.
1. inoculating CHO cells stably expressing MOR/Gα16 in a 96-well plate and incubating the same overnight;
2. removing the medium from the wells inoculated with cells, adding freshly prepared dye (40 μl/well), and incubating for 40 minutes in a thermostatic incubator of 37° C.;
3. diluting the test substances with a calcium buffer and homogenizing; […]

The pIC50 is the negative decadic logarithm of the IC50, by convention in mol/L. Consider `C=CCN1CC[C@]23c4c5ccc(O)c4O[C@H]2[C@@H](OCCOCCOCCOCCO[C@H]2CC[C@@]4(O)[C@H]6Cc7ccc(O)c8c7[C@@]4(CCN6CC=C)[C@H]2O8)CC[C@@]3(O)[C@H]1C5` [(α,α)-NAL24, double-end substituted tetraethylene glycol-naloxone], for which the pIC50 was 8.15.

In the case of `COC(=O)/C=C/C(=O)N[C@@H]1CC[C@@]2(O)[C@H]3Cc4ccc(O)c5c4[C@@]2(CCN3CC2CC2)[C@H]1O5` [Beta-FNA], the pIC50 is 8.58.
